Data: US9044464B2, “No-releasing guanidine-coxib anti-cancer agents” (Euclises Pharmaceuticals, Inc., priority 2012, dated 2015)

System: PGE2 levels
Assay: Rat Air-Pouch Model for Acute Inflammation (carrageenan challenge, exudate volume and PGE2 by ELISA)
Assay type: in vivo, Sprague-Dawley rats
Conditions: for Volume (mL), collected exudate volume, mean / PGE2 (pg/mL) in exudate, mean: 0.01 mmol/kg oral gavage 2 h before intra-pouch 1% carrageenan, exudate collected 4 h after carrageenan; for Volume (mL), collected exudate volume, mean: 5 rats/group, vehicle mean 5.7; for PGE2 (pg/mL) in exudate, mean: ELISA, vehicle mean 4357.7; for reduction in exudate PGE2 release / reduction in collected exudate volume: 0.01 mmol/kg oral pretreatment, versus vehicle; for reduction in collected exudate volume: significant
Method: A study of celecoxib release from Example Compound 5 is assessed by measurement of PGE2 levels, which are indicative of inflammatory response.
Animals: Sprague-Dawley rats (Charles River Laboratories, R #3234, PO #738990, male, 160-180 g) were received, individually examined, and housed in cages of five rats each. The rats were ear notched for identification purposes.
Compounds and dosing solutions: The vehicle was prepared by dissolving 40 g (2-hydroxypropyl)-β-cyclodextrin (HP-β-CD, Sigma, Cat. 332593, lot MKBJ5858V) in 160 mL sterile saline for injection, USP (Hospira, lot 26-801-FW) making a […] solution which was filter sterilized (0.2 μm, Nalgene, Cat. 151-4020, lot 1095610). A 1% carrageenan solution was prepared by dissolving […] (Fluka, Cat. 22049, lot 1318338) in hot 60 mL sterile saline for injection, USP. This solution was stored at 4-8° C. Test compounds were dissolved in DMSO (Fisher Scientific, Cat. D128-500, lot 874999) to make 75 mM stocks. 0.25 mL of compound DMSO stocks were mixed with 12.5 mL of HP-β-CD solution at 50° C. (maximum DMSO concentration was 2% of the final volume of vehicle). Final concentration of all test compounds was 1.5 mM and compounds were dosed within 2 hours of preparation at 0.01 mmol/kg ([…] of test compound per rat).
Day 0—Air pouch initiation: The rats were anesthetized in a biological cabinet, the nape of the neck was cleansed with 70% isopropanol (Butler Schein Animal Health, Cat. 002498, lot 29EMS07104547) followed by 1% povidone-iodine solution (Ricca Chemical Co., Cat. 3955-16, lot 2205469). Twenty mL of sterile (0.22 μm, Millipore, Cat. SLGP033RS, lot R2KA55925, exp 08/2015) air was injected subcutaneously (SC) using a 23G×1½ inch needle fixed to a 20 mL syringe. The rats were returned to routine housing. No adverse reactions were observed.
Day 3—Air pouch maintenance: The rats were anesthetized in a biological cabinet, the nape of the neck was cleansed with 70% isopropanol followed by 1% povidone-iodine solution. Ten mL of sterile air was injected SC using a 23G×1½ inch needle fixed to a 20 mL syringe. The rats were returned to routine housing in clean cages. No adverse reactions were observed.
Day 6—Compound administration and carrageenan insult: At commencement of the study, each rat was weighed and sorted into treatment groups of 5 rats/group based upon average weight. Each rat was dosed orally via gavage at 6.809 mL/kg (1.6 mL/235 g) with their respective test material/vehicle. Two hours after test material/vehicle administration, the rats were injected with 1.0 mL of the room temperature 1% carrageenan saline solution into the air pouch. Four hours after carrageenan injection, the rats were anesthetized and 5 mL of the exudate buffer was injected into the air pouch. The pouch was gently massaged, the exudate immediately removed, and exudate volume recorded. The exudate was collected in a serum separator tube on an ice bath. The exudates were centrifuged (refrigerated) and an aliquot of the supernatant was stored in a labeled Eppendorf tube at −80° C.
Termination of Study: Animals were euthanized via CO2 asphyxiation at the completion of the in-life portion of this study and carcasses were disposed of according to standard protocols.
Data analysis: The exudate samples were thawed to room temperature and assayed by ELISA for PGE2 (R&D Systems, Cat. KGE004B, lot 307711). Statistical significance of treatments on mean exudate volumes are determined by comparison of means for treatment groups with vehicle group. Mean cytokine concentrations and standard deviations are determined for each group. Statistical significance of treatments on cytokine concentrations are determined for each compound group compared to vehicle group. Statistical significance (p-value) was calculated vs control groups by Student's t-Test.

| Compound | Volume (mL), collected exudate volume, mean [mL] | PGE2 (pg/mL) in exudate, mean [pg/mL] | reduction in exudate PGE2 release [%] | reduction in collected exudate volume [%] |
| --- | --- | --- | --- | --- |
| Cc1ccc(-c2cc(C(F)(F)F)nn2-c2ccc(S(N)(=O)=O)cc2)cc1 [celecoxib, 4-[5-(4-Methylphenyl)-3-(trifluoromethyl)-1H-pyrazol-1-yl]benzenesulfonamide] | 4.6 | 907.1 | 80 | 19 |
| Cc1ccc(-c2cc(C(F)(F)F)nn2-c2ccc(S(=O)(=O)NC(=O)[C@@H](N)CCCNC(=N)N)cc2)cc1 [Example 5, (S)-2-Amino-5-guanidino-N-((4-(5-(p-tolyl)-3-(trifluoromethyl)-1H-pyrazol-1-yl)phenyl)sulfonyl)pentanamide] | 4.3 | 896.0 | 80 | 24 |
